From patent US6770587B1, “Chain extended functionalized initiators and methods of preparing and using the same” (FMC Corporation, priority 2000, dated 2004)

Tests used:
[1] = Solubility of initiator in cyclohexane with isoprene added as chain extension agent; format: physicochemical; conditions: for solubility, Moles Active/Kg. / solubility, Moles Active/Liter: cyclohexane
Experimental: For example, the solubility of 3-(1,1-dimethylethoxy)-1-propyllithium was investigated in cyclohexane at 0° C., with various amounts of isoprene added as a chain extension agent. The solubility data is collected in the table below:
A similar impact on the solubility of 3-(hexamethyleneimino)-1-propyllithium in cyclohexane was obtained with the addition of limited amounts of isoprene.
A one-liter three-necked Morton flask was equipped with a mechanical stirrer, Claisen adapter with an ice condenser and gas inlet, and a 250 milliliter pressure-equalizing dropping funnel. This apparatus was dried in an oven overnight at 125° C., assembled hot, and allowed to cool to room temperature in a stream of argon. Lithium metal dispersion was washed free of mineral oil with hexane (2×100 ml) and pentane (1×100 ml). The resultant lithium dispersion was dried in a stream of argon, weighed (13.90 grams, 2.00 moles, 2.80 equivalents), and transferred to the reaction flask with 400 ml of cyclohexane. The mechanical stirrer was set at an agitation rate of 500 RPMs, and the reaction mixture was heated to 80° C. with a heating mantle. The heat source was removed. The dropping funnel was charged with 107.82 grams (0.72 moles, 1.00 equivalent) of the precursor. The precursor was added dropwise, at an approximate rate of 0.71 ml/min. The reaction temperature was maintained at 70° C. with a dry ice/hexane bath. The total halide feed time was 162 minutes. The reaction mixture was allowed to stir for one hour post-feed, and maintained at a temperature of 70° C. with a heating mantle. Then isoprene, 98.20 grams ([…], […] of isoprene) was added at a feed rate of approximately 2.55 ml/min. The temperature was maintained at 62.5° C. during and after the feed. The reaction stirred for two hours before it was cooled to room temperature and filtered through a medium porosity pressure filter. The lithium muds were washed with cyclohexane (1×50 ml). The filtration took 15 minutes. This afforded a dark yellow solution, 647.08 grams, 850 ml. The sample was stored in 0° C. refrigerator. This solution was transferred to a dry, 1000 ml pear shaped flask. A majority of the solvent was removed on the rotary evaporator, at full vacuum, with a bath temperature of 30° C. This afforded a mobile, yellow oil, yield=307.92 g, 475 ml.

[2] = non-chain extended initiator, cyclohexane (background statement); cited from earlier work
[3] = Storage of initiator solutions, observation of precipitate or crystals; format: physicochemical
Experimental: The sample bottle was placed in a refrigerator at −1° C. for twenty-four hours.
(§1) The sample bottle was placed in a refrigerator at −1° C. for twenty-four hours. […] This solution was transferred to a dry, one-liter pear shaped flask. A majority of the solvent was removed on the rotary evaporator, at full vacuum, with a bath temperature of 40° C. This afforded a dark amber oil, yield=154.85 grams.
as §1, with “one liter” for “one-liter”, “yield=230.07” for “yield=154.85”
The sample bottle was placed in a refrigerator at −2° C. for forty-eight hours.
This solution was transferred to a dry, 500 ml., pear shaped flask. A majority of the solvent was removed on the rotary evaporator, at full vacuum, with a bath temperature of 40° C. This afforded a dark amber oil, yield=104.90 grams. Heptane, 6.11 grams, was added as a freezing point depressant.
A one-liter three-necked Morton flask was equipped with a mechanical stirrer, Claisen adapter with an ice condenser and gas inlet, and a 250 milliliter pressure-equalizing dropping funnel. This apparatus was dried in an oven overnight at 125° C., assembled hot, and allowed to cool to room temperature in a stream of argon. Lithium metal dispersion was washed free of mineral oil with hexane (2×100 ml), and pentane (1×100 ml). The resultant lithium dispersion was dried in a stream of argon, weighed (12.22 grams, 1.76 moles, 2.80 equivalents), and transferred to the reaction flask with 550 ml of cyclohexane. The mechanical stirrer was set at an agitation rate of 500 RPMs, and the reaction mixture was heated to 80° C. with a hearing mantle. The heat source was removed. The dropping funnel was charged with 94.90 grams (0.63 moles, 1.00 equivalent) of the precursor. The precursor was added dropwise, at an approximate rate of 1.59 ml/min. The reaction temperature was maintained at 70° C. with a dry ice/hexane bath. The total halide feed time was 66 minutes. The reaction mixture was allowed to stir for one hour post-feed and maintained at a temperature of 67.5° C. with a heating mantle. Then isoprene, 22.89 grams ([…], 0.50 equivalents of isoprene) was added at a feed rate of approximately 1.58 ml/min. The temperature was maintained at 62.5° C. during and after the feed. The reaction stirred for two hours before it was cooled to room temperature and filtered through a medium porosity pressure filter. The lithium muds were washed with cyclohexane (2×70 ml). The filtration took 15 minutes. This afforded a clear, light yellow solution, 513.07 g, 650 ml. The sample was stored in 0° C. refrigerator. This solution was transferred to a dry, 1000 ml pear-shaped flask. Some solvent was removed on the rotary evaporator, at full vacuum, with a bath temperature of 30° C. This afforded a light yellow solution, yield=386.01 g, 550 ml.
A one-liter three-necked Morton flask was equipped with a mechanical stirrer, Claisen adapter with an ice condenser and gas inlet, and a 250 milliliter pressure-equalizing dropping funnel. This apparatus was dried in an oven overnight at 125° C., assembled hot, and allowed to cool to room temperature in a stream of argon. Lithium metal dispersion was washed free of mineral oil with hexane (2×100 ml) and pentane (1×100 ml). The resultant lithium dispersion was dried in a stream of argon, weighed (13.90 grams, 2.00 moles, 2.80 equivalents), and transferred to the reaction flask with 400 ml of cyclohexane. The mechanical stirrer was set at an agitation rate of 500 RPMs, and the reaction mixture was heated to 80° C. with a heating mantle. The heat source was removed. The dropping funnel was charged with 107.82 grams (0.72 moles, 1.00 equivalent) of the precursor. The precursor was added dropwise, at an approximate rate of 0.71 ml/min. […]

[4] = 0° C., 0.00 isoprene equivalents
[5] = 0° C., 0.50 isoprene equivalents
[6] = 0° C., 0.75 isoprene equivalents
[7] = 0° C., 1.00 isoprene equivalents
[8] = 0° C., 2.00 isoprene equivalents

[Li][CH2]C(C)(C)CO[Si](C)(C)C [2,2-dimethyl-3-trimethylsilyloxy-1-propyllithium]
effect of chain extension on solubility ([1]; addition of less than one equivalent of the chain extension agent): increased the solubility

[Li][CH2]CCOC(C)(C)C [3-(1,1-dimethylethoxy)-1-propyllithium]
solubility, Moles Active/Kg. [1, 4]: 0.36 Moles Active/Kg.
solubility, Moles Active/Liter [1, 4]: 0.30 Moles Active/Liter
solubility, Moles Active/Kg. [1, 5]: 1.35 Moles Active/Kg.
solubility, Moles Active/Liter [1, 5]: 1.06 Moles Active/Liter
solubility, Moles Active/Kg. [1, 6]: 1.72 Moles Active/Kg.
solubility, Moles Active/Liter [1, 6]: 1.33 Moles Active/Liter
solubility, Moles Active/Kg. [1, 7]: 1.84 Moles Active/Kg.
solubility, Moles Active/Liter [1, 7]: 1.42 Moles Active/Liter
solubility, Moles Active/Kg. [1, 8]: 1.90 Moles Active/Kg.
solubility, Moles Active/Liter [1, 8]: 1.46 Moles Active/Liter

[Li][CH2]CCOC(C)(C)CC [3-(1,1-dimethylpropyloxy)-1-propyllithium]
maximum solubility in cyclohexane [2]: 0.30 Molar

[Li][CH2]CCN1CCCCCC1 [3-(hexamethyleneimino)-1-propyllithium]
solubility, Moles Active/Kg. ([1]; 0.00 isoprene equivalents): 0.20 Moles Active/Kg.
solubility, Moles Active/Liter ([1]; 0.00 isoprene equivalents): 0.16 Moles Active/Liter
solubility, Moles Active/Kg. ([1]; 0.13 isoprene equivalents): 0.64 Moles Active/Kg.
solubility, Moles Active/Liter ([1]; 0.13 isoprene equivalents): 0.51 Moles Active/Liter
solubility, Moles Active/Kg. ([1]; 0.51 isoprene equivalents): 2.08 Moles Active/Kg.
solubility, Moles Active/Liter ([1]; 0.51 isoprene equivalents): 1.62 Moles Active/Liter
solubility, Moles Active/Kg. ([1]; 0.90 isoprene equivalents): 2.43 Moles Active/Kg.
solubility, Moles Active/Liter ([1]; 0.90 isoprene equivalents): 2.01 Moles Active/Liter
solubility, Moles Active/Kg. ([1]; 2.00 isoprene equivalents): 2.75 Moles Active/Kg.
solubility, Moles Active/Liter ([1]; 2.00 isoprene equivalents): 2.28 Moles Active/Liter
precipitation on storage ([3]; cyclohexane solution, 6.707 wt. % (0.4556 moles/kg), overnight at −5° C.): heavy white precipitate
maximum solubility in cyclohexane [2]: 0.30 Molar

[Li][CH2]CCN1CCCC1 [3-(pyrrolidino)-1-propyllithium]
precipitation on storage ([3]; cyclohexane solution before chain extension, 14.63 wt. % (1.228 moles/kg), overnight at 20° C.): heavy white precipitate had formed

[Li][CH2]CCN1CCCCCC1 [Example 1, 3-(Hexamethyleneimino)-1-Propyllithium]
precipitation on storage ([3]; cyclohexane solution as obtained, refrigerator at −1° C. for twenty-four hours): No solids had precipitated
precipitation on storage ([3]; cyclohexane solution as obtained, storage overnight at 15° C.): no solids had precipitated

[Li][CH2]CCN1CCCCCC1 [Example 2, 3-(Hexamethyleneimino)-1-Propyllithium]
precipitation on storage ([3]; concentrated solution, 30.65 wt. % (2.083 moles/kg), −1° C. for one week): no precipitate was observed

[Li][CH2]CCN1CCCCCC1 [Example 3, 3-(Hexamethyleneimino)-1-Propyllithium]
precipitation on storage ([3]; concentrated solution, 35.74 wt. % (2.428 moles/kg), −1° C. for ten days): no precipitate was observed

[Li][CH2]CCN1CCCC1 [Example 4, 3-(Pyrrolidino)-1-Propyllithium]
precipitation on storage ([3]; cyclohexane solution diluted with heptane, 9.53 wt. %, −2° C. for forty-eight hours): No solids had precipitated

[Li][CH2]CCN1CCCC1 [Example 5, 3-(Pyrrolidino)-1-Propyllithium]
precipitation on storage ([3]; concentrated solution with heptane, 24.14 wt %, −2° C. for four days): no solids had precipitated
precipitation on storage ([3]; cyclohexane solution, 14.02 wt. %, overnight at −2° C.): no solids had precipitated

[Li][CH2]CCOC(C)(C)C [Example 7, 3-(1,1-Dimethylethoxy)-1-propyllithium]
crystals on storage ([3]; cyclohexane solution, 0° C. refrigerator, after one day): Crystals were present

[Li][CH2]CCOC(C)(C)C [Example 10, 3-(1,1-Dimethylethoxy)-1-propyllithium]
crystals on storage ([3]; concentrated cyclohexane solution, 49.4 wt. % (1.91 mole/kg), storage in 0° C. refrigerator, maximum solubility): crystals were present
